PubChem BioAssay AID624367 (Broad Institute, 2012)
Calls of active or inactive are those of the source. How the calls were made is not given here.

test: lymphoblastoid cell cytotoxicity, dose response, cytotoxicity control, plate reader, dry powder, set 2 (AID 624367); settings: Lymphoblastoid cell line (LCL) cytotoxicity, plate reader; at 30 µM (top of the series)

Compound | activity change, negative = cytotoxicity
Cc1cc(C(=O)Nc2ccc3c(c2)C(=O)N(C)[C@@H]2CC[C@H](CC(=O)NCc4ccc(-c5ccccc5)cc4)O[C@H]2CO3)no1 | -7.18% (inactive)

same assay, conditions: Lymphoblastoid cell line (LCL) cytotoxicity, plate reader; at 35 µM (top of the series)

Compound | activity change, negative = cytotoxicity
C[C@H](NC(=O)C[C@H]1C[C@@H]2c3cc(NC(=O)c4cccnc4)ccc3O[C@@H]2[C@@H](CO)O1)c1ccccc1 | -1.74% (inactive)
Cc1noc(C)c1S(=O)(=O)Nc1ccc2c(c1)C(=O)N([C@H](C)CO)C[C@@H](C)[C@H](CN(C)Cc1ccc(C(F)(F)F)cc1)OCCCC[C@@H](C)O2 | -9.24% (inactive)
CC(C)(C)[S@@](=O)N1Cc2cc(C(=O)NCc3ccccn3)nc(-c3cccc(-c4ccccc4F)c3)c2[C@H]1CCO | -1.27% (inactive)
C[C@@H]1CN([C@H](C)CO)C(=O)c2c(c3ccccc3n2C)-c2ccccc2CO[C@@H]1CN(C)C(=O)Nc1ccc(F)cc1 | -1.38% (inactive)
C[C@H](NC(=O)C[C@H]1C=C[C@@H](NC(=O)Cc2ccccn2)[C@@H](CO)O1)c1ccccc1 | 6.04% (inactive)
C[C@@H]1CN([C@@H](C)CO)C(=O)Cc2cc(NC(=O)Cc3ccccc3)ccc2O[C@@H]1CN(C)Cc1ccc(C(F)(F)F)cc1 | -0.78% (inactive)
O=C(C[C@@H]1CC[C@@H]2[C@H](COC[C@@H](O)CN2Cc2ccc(Oc3ccccc3)cc2)O1)N1CCc2ccccc2C1 | -13.2% (inactive)
O=C(Cc1ccccn1)NCC[C@H]1CC[C@@H](NC(=O)Nc2ccc(Cl)cc2)[C@@H](CO)O1 | -2.19% (inactive)
C[C@H]1CN([C@@H](C)CO)C(=O)Cc2cc(NC(=O)Cc3ccccc3)ccc2O[C@H]1CN(C)Cc1ccc(C(F)(F)F)cc1 | 2.21% (inactive)
N#C[C@H]1[C@H](c2ccc(C#Cc3ccccc3F)cc2)[C@@H](CO)N1C(=O)c1cccnc1 | 3.23% (inactive)
O=C(C[C@H]1C[C@@H]2c3cc(NS(=O)(=O)c4ccc(F)cc4)ccc3O[C@@H]2[C@H](CO)O1)NC1CCCCC1 | 0.09% (inactive)
CO[C@@H]1CN(C)C(=O)c2ccc(NC(C)=O)cc2OC[C@@H](C)N(Cc2ccccc2F)C[C@H]1C | 2.23% (inactive)
CO[C@H](CN(C)S(=O)(=O)c1cccc(Cl)c1)[C@@H](C)CN([C@H](C)CO)S(=O)(=O)c1ccc(Cl)cc1 | -9.42% (inactive)
CC(C)NC(=O)N1[C@H](CO)[C@H](c2ccc(C#CC3CCCCC3)cc2)[C@@H]1C#N | -1.32% (inactive)
COc1ccc(S(=O)(=O)N(C)C[C@H]2Oc3ncc(/C=C/c4ccccc4)cc3C(=O)N([C@H](C)CO)C[C@@H]2C)cc1 | 7.14% (inactive)
CC(C)NC(=O)N1Cc2cc(C(=O)NC3Cc4ccccc4C3)nc(-c3cccc(-c4cccnc4)c3)c2[C@H]1CCO | -2.11% (inactive)
Cc1ccc(S(=O)(=O)N(C)C[C@H]2Oc3cc(C#Cc4ccncc4)ccc3S(=O)(=O)N([C@@H](C)CO)C[C@@H]2C)cc1 | 8.38% (inactive)
COc1ccccc1CNC(=O)C[C@@H]1C[C@H]2c3cc(NC(=O)c4ccc5c(c4)OCO5)ccc3O[C@H]2[C@H](CO)O1 | -4.54% (inactive)
Cc1noc(C)c1S(=O)(=O)Nc1ccc2c(c1)C(=O)N([C@H](C)CO)C[C@@H](C)[C@H](CN(C)Cc1ccc(C(F)(F)F)cc1)OCCCC[C@H](C)O2 | -6.93% (inactive)
COc1cccc(C#Cc2ccc([C@@H]3[C@@H](C#N)N(C(=O)c4ccccn4)[C@@H]3CO)cc2)c1 | 7.55% (inactive)
O=C(Cc1ccccn1)NCC[C@H]1CC[C@H](NC(=O)Nc2ccc(Cl)cc2)[C@@H](CO)O1 | 3.54% (inactive)

Compound | activity change, negative = cytotoxicity
C[C@H]1CN([C@@H](C)CO)C(=O)Cc2cc(NC(=O)Cc3ccccc3)ccc2O[C@@H]1CN(C)Cc1ccc(C(F)(F)F)cc1 | -5.68% (inactive)
CC(C)c1ccc(NC(=O)C[C@H]2CC[C@H]3[C@@H](COc4ccc(NC(=O)Nc5ccc(F)c(F)c5)cc4C(=O)N3C)O2)cc1 | -0.979% (inactive)
C[C@H](NC(=O)C[C@H]1C=C[C@H](NC(=O)Cc2ccccn2)[C@@H](CO)O1)c1ccccc1 | 0.993% (inactive)
C[C@@H](NC(=O)C[C@@H]1C=C[C@H](NC(=O)Cc2ccccn2)[C@@H](CO)O1)c1ccccc1 | -4.44% (inactive)
C[C@@H](NC(=O)C[C@@H]1C=C[C@@H](NC(=O)Cc2ccccn2)[C@H](CO)O1)c1ccccc1 | 0.18% (inactive)
O=C(C[C@@H]1C[C@H]2c3cc(NC(=O)c4ccc5c(c4)OCO5)ccc3O[C@H]2[C@H](CO)O1)NC1CCCCC1 | -16.7% (inactive)
O=C(C[C@@H]1C[C@@H]2c3cc(NC(=O)c4cccnc4)ccc3O[C@@H]2[C@H](CO)O1)NCC(F)(F)F | -0.745% (inactive)
COc1cccc(C(=O)Nc2ccc3c(c2)C(=O)N(C)C[C@H](OC)[C@@H](C)CN(CCc2ccccc2)[C@@H](C)CO3)c1 | -13% (inactive)
Cc1cc(C(=O)Nc2ccc3c(c2)C(=O)N(C)[C@@H]2CC[C@@H](CC(=O)NCc4ccc(-c5ccccc5)cc4)O[C@H]2CO3)no1 | -5.25% (inactive)
C[C@@H]1CN([C@@H](C)CO)C(=O)c2c(c3ccccc3n2C)-c2ccccc2CO[C@@H]1CN(C)C(=O)Nc1ccc(F)cc1 | -5.86% (inactive)
CN(C)C(=O)c1ccc(-c2cccc(-c3nc(C(=O)NCc4ccccc4)cc4c3[C@@H](CCO)N([S@](=O)C(C)(C)C)C4)c2)cc1 | -1.5% (inactive)
C[C@H]1CN([C@@H](C)CO)C(=O)c2cc(C#Cc3ccccc3F)cnc2O[C@@H]1CN(C)C(=O)C1CCCCC1 | 8.49% (inactive)
C[C@H](CO)N1C[C@H](C)[C@@H](CN(C)C(=O)Nc2ccc(F)cc2)OCc2ccccc2-c2c(n(C)c3ccccc23)C1=O | -2.81% (inactive)
C[C@H](CO)N1C[C@H](C)[C@H](CN(C)Cc2ccc(C(F)(F)F)cc2)Oc2ccc(NC(=O)Cc3ccccc3)cc2CC1=O | 3.51% (inactive)
CC(=O)N(C)C[C@@H]1Oc2cc(C#Cc3ccc(F)cc3)ccc2S(=O)(=O)N([C@H](C)CO)C[C@H]1C | 1.69% (inactive)
COc1cccc(S(=O)(=O)N(C)C[C@@H]2Oc3cc(C4=CCCCC4)ccc3S(=O)(=O)N([C@H](C)CO)C[C@H]2C)c1 | 7.75% (inactive)
COc1ccccc1C#Cc1ccc([C@H]2[C@H](C#N)N(C(=O)C3CC3)[C@H]2CO)cc1 | -4.85% (inactive)
Cc1ccc(S(=O)(=O)N(C)C[C@H]2Oc3cc(C#Cc4ccncc4)ccc3S(=O)(=O)N([C@@H](C)CO)C[C@H]2C)cc1 | -6.9% (inactive)
CC(C)(C)[S@@](=O)N1Cc2cc(C(=O)NCCc3ccncc3)nc(-c3cccc(-c4cccnc4)c3)c2[C@H]1CCO | 4.85% (inactive)
COc1ccccc1C#Cc1cnc2c(c1)C(=O)N([C@@H](C)CO)C[C@H](C)[C@@H](CN(C)C(=O)c1ccc3c(c1)OCO3)O2 | 16.2% (inactive)
COc1cccc(-c2cccc(-c3nc(C(=O)NCC(F)(F)F)cc4c3[C@H](CCO)N([S@@](=O)C(C)(C)C)C4)c2)c1 | -12.4% (inactive)
